Measured values reported in PubChem BioAssay AID248 (DTP/NCI, 2004).
Values joined by “and” are separate entries in the source; they are usually repeats but may differ in a detail not shown here. Identical values can stand only once. Inconclusive results and toxic doses are left out. Cut-off read from the data, not from the text of the source: active = T/C of 150% or more; inactive = T/C below 125%.

Tested on: L1210 leukemia ip in BDF1 mice, survival T/C
Assay: NCI In Vivo Anticancer Drug Screen. Data for tumor model L1210 Leukemia (intraperitoneal) in B6D2F1 (BDF1) mice
Conditions: endpoint: mean survival time, higher = longer survival
How it was run: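 Antitumor effect is assessed in tumor-bearing animals. Survival in the compound arm is compared with a vehicle-dosed control arm and expressed as their quotient.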

[1] = dose: 400.0 mg/kg/injection, schedule: Q01DX001 (ip), vehicle: saline
[2] = dose: 100.0 mg/kg/injection, schedule: Q01DX001 (ip), vehicle: carboxymethylcellulose (CMC)
[3] = dose: 100.0 mg/kg/injection, schedule: Q04DX003 (ip), vehicle: Klucel (hydroxypropylcellulose) (HPC)
[4] = dose: 200.0 mg/kg/injection, schedule: Q01DX001 (ip), vehicle: carboxymethylcellulose (CMC)
[5] = dose: 200.0 mg/kg/injection, schedule: Q04DX003 (ip), vehicle: Klucel (hydroxypropylcellulose) (HPC)
[6] = dose: 400.0 mg/kg/injection, schedule: Q01DX001 (ip), vehicle: carboxymethylcellulose (CMC)
[7] = dose: 400.0 mg/kg/injection, schedule: Q04DX003 (ip), vehicle: Klucel (hydroxypropylcellulose) (HPC)
[8] = dose: 50.0 mg/kg/injection, schedule: Q04DX003 (ip), vehicle: saline
[9] = dose: 100.0 mg/kg/injection, schedule: Q04DX003 (ip), vehicle: saline
[10] = dose: 200.0 mg/kg/injection, schedule: Q04DX003 (ip), vehicle: saline
[11] = dose: 100.0 mg/kg/injection, schedule: Q04DX002 (ip), vehicle: saline with Tween-80
[12] = dose: 400.0 mg/kg/injection, schedule: Q04DX002 (ip), vehicle: saline with Tween-80
[13] = dose: 25.0 mg/kg/injection, schedule: Q01DX009 (ip), vehicle: saline
[14] = dose: 25.0 mg/kg/injection, schedule: Q04DX003 (ip), vehicle: saline
[15] = dose: 50.0 mg/kg/injection, schedule: Q01DX009 (ip), vehicle: saline
[16] = dose: 100.0 mg/kg/injection, schedule: Q01DX009 (ip), vehicle: Klucel (hydroxypropylcellulose) (HPC)
[17] = dose: 200.0 mg/kg/injection, schedule: Q01DX009 (ip), vehicle: Klucel (hydroxypropylcellulose) (HPC)
[18] = dose: 100.0 mg/kg/injection, schedule: Q04DX002 (ip), vehicle: Klucel (hydroxypropylcellulose) (HPC)
[19] = dose: 100.0 mg/kg/injection, schedule: Q01DX001 (ip), vehicle: saline
[20] = dose: 200.0 mg/kg/injection, schedule: Q01DX001 (ip), vehicle: saline

Measured: T/C

CN=C(N)NN
inactive: dose: 30.0 mg/kg/injection, schedule: Q01DX Z (ip), vehicle: methylcellulose (MC) 102 % of control | dose: 60.0 mg/kg/injection, schedule: Q01DX Z (ip), vehicle: methylcellulose (MC) 97 % of control | dose: 120.0 mg/kg/injection, schedule: Q01DX Z (ip), vehicle: methylcellulose (MC) 105 % of control | dose: 175.0 mg/kg/injection, schedule: Q01DX001 (ip), vehicle: saline 105 % of control | dose: 240.0 mg/kg/injection, schedule: Q01DX Z (ip), vehicle: methylcellulose (MC) 98 % of control | dose: 265.0 mg/kg/injection, schedule: Q01DX001 (ip), vehicle: saline 104 % of control | dose: 375.0 mg/kg/injection, schedule: Q01DX Z (ip), vehicle: methylcellulose (MC) 111 % of control | [1] 98 % of control | dose: 480.0 mg/kg/injection, schedule: Q01DX Z (ip), vehicle: methylcellulose (MC) 107 % of control | dose: 600.0 mg/kg/injection, schedule: Q01DX001 (ip), vehicle: saline 104 % of control

O=C(O)CSCc1cccc2ccccc12
inactive: [2] 91 % of control | [3] 98 % of control | [4] 93 % of control | [5] 94 % of control | [6] 91 % of control | [7] 105 % of control

CCCCNC(=O)Nc1ccccc1Cl
inactive: dose: 100.0 mg/kg/injection, schedule: Q01DX001 (ip), vehicle: Klucel (hydroxypropylcellulose) (HPC) 96 % of control | dose: 200.0 mg/kg/injection, schedule: Q01DX001 (ip), vehicle: Klucel (hydroxypropylcellulose) (HPC) 99 % of control | dose: 400.0 mg/kg/injection, schedule: Q01DX001 (ip), vehicle: Klucel (hydroxypropylcellulose) (HPC) 102 % of control

COC1C(COC(C)=O)OC(n2cnc3c(=S)nc[nH]c32)C1OC(C)=O (configuration not stated)
inactive: [2] 114 % of control | [4] 104 % of control | [6] 111 % of control

O=C(Nc1c(Oc2ccc(Cl)cc2)ccc(Cl)c1S(=O)(=O)O)Nc1c(Oc2ccc(Cl)c(Cl)c2)ccc(Cl)c1S(=O)(=O)O
inactive: [8] 97 % of control | [9] 90 % of control | [10] 95 % of control

CCCCCCCC(=O)N1C(=O)CCC1C(=O)NCCCCC(=O)OC (configuration not stated)
inactive: [11] 103 % of control | dose: 200.0 mg/kg/injection, schedule: Q04DX002 (ip), vehicle: saline with Tween-80 116 % of control | [12] 90 % of control

CNc1c(C)cc(C)c(NC)c1C
inactive: [11] 107 % of control

CCCCC[C@@H](CN(C)C)[C@H](O)/C=C/c1ccc(Cl)cc1
inactive: dose: 12.5 mg/kg/injection, schedule: Q01DX009 (ip), vehicle: saline 102 % of control | dose: 12.5 mg/kg/injection, schedule: Q04DX003 (ip), vehicle: saline 88 % of control | [13] 98 % of control | [14] 93 % of control | [15] 93 % of control and 97 % of control | [8] 93 % of control | [10] 102 % of control

CCN(CC)CCNc1cccc2sc3ccccc3c(=O)c12
inactive: dose: 50.0 mg/kg/injection, schedule: Q01DX009 (ip), vehicle: Klucel (hydroxypropylcellulose) (HPC) 92 % of control | [16] 94 % of control | [17] 94 % of control | dose: 400.0 mg/kg/injection, schedule: Q01DX009 (ip), vehicle: Klucel (hydroxypropylcellulose) (HPC) 100 % of control

Oc1cccc2c(NC(=S)Nc3ccccc3)cccc12
inactive: [16] 101 % of control | [18] 96 % of control | [17] 101 % of control | dose: 200.0 mg/kg/injection, schedule: Q04DX002 (ip), vehicle: Klucel (hydroxypropylcellulose) (HPC) 104 % of control | dose: 400.0 mg/kg/injection, schedule: Q04DX002 (ip), vehicle: Klucel (hydroxypropylcellulose) (HPC) 100 % of control

NC1=CC(=O)CCC1
inactive: [19] 103 % of control | [20] 100 % of control | [1] 97 % of control

C=CCN(CC=C)c1nc(N(CC)CC)nc(N(CC)CC)n1
inactive: dose: 25.6 mg/kg/injection, schedule: Q04DX002 (ip), vehicle: saline with Tween-80 91 % of control | dose: 64.0 mg/kg/injection, schedule: Q04DX002 (ip), vehicle: saline with Tween-80 97 % of control | dose: 160.0 mg/kg/injection, schedule: Q04DX002 (ip), vehicle: saline with Tween-80 102 % of control | [12] 112 % of control

CNC(C)(C)CO
inactive: [9] 100 % of control | [10] 107 % of control | dose: 400.0 mg/kg/injection, schedule: Q04DX003 (ip), vehicle: saline 104 % of control

CN(N)P(=O)(c1ccccc1)N(C)N
inactive: [13] 103 % of control | [14] 101 % of control | [15] 100 % of control | [8] 98 % of control | [9] 104 % of control and 105 % of control

NC(=S)Nc1cccnc1
inactive: dose: 25.0 mg/kg/injection, schedule: Q04DX002 (ip), vehicle: Klucel (hydroxypropylcellulose) (HPC) 91 % of control | dose: 50.0 mg/kg/injection, schedule: Q04DX002 (ip), vehicle: Klucel (hydroxypropylcellulose) (HPC) 91 % of control | [18] 97 % of control

Brc1ccc(S/C=C/c2ccccc2)cc1
inactive: [19] 112 % of control | [20] 102 % of control | [1] 101 % of control

CCCc1nc2ccccc2c(=O)n1/N=C/c1ccsc1
inactive: dose: 100.0 mg/kg/injection, schedule: Q04DX003 (ip), vehicle: saline sonified 101 % of control | dose: 200.0 mg/kg/injection, schedule: Q04DX003 (ip), vehicle: saline sonified 94 % of control | dose: 400.0 mg/kg/injection, schedule: Q04DX003 (ip), vehicle: saline sonified 94 % of control

Cc1ccnc(/C=N/NC(N)=S)c1
inactive: dose: 100.0 mg/kg/injection, schedule: Q04DX002 (ip), vehicle: saline 108 % of control | dose: 200.0 mg/kg/injection, schedule: Q04DX002 (ip), vehicle: saline 86 % of control

O=C(Nc1cc([N+](=O)[O-])ccc1O)Nc1cc([N+](=O)[O-])ccc1F
inactive: [3] 100 % of control | [5] 94 % of control | [7] 98 % of control

CCC(C(=O)OC)C1CCN(C)C(=O)C12CO2 (configuration not stated)
inactive: dose: 25.0 mg/kg/injection, schedule: Q01DX001 (ip), vehicle: saline 93 % of control | [14] 95 % of control | dose: 25.0 mg/kg/injection, schedule: Q04DX003 (oral), vehicle: saline 100 % of control | dose: 50.0 mg/kg/injection, schedule: Q01DX001 (ip), vehicle: saline 104 % of control | [8] 95 % of control | dose: 50.0 mg/kg/injection, schedule: Q04DX003 (oral), vehicle: saline 98 % of control | [19] 97 % of control | [9] 97 % of control | dose: 100.0 mg/kg/injection, schedule: Q04DX003 (oral), vehicle: saline 96 % of control | [20] 103 % of control | [10] 97 % of control | dose: 200.0 mg/kg/injection, schedule: Q04DX003 (oral), vehicle: saline 107 % of control

O=C(c1ccccc1)N(c1ccccc1)c1ccccc1
inactive: dose: 50.0 mg/kg/injection, schedule: Q01DX001 (ip), vehicle: carboxymethylcellulose (CMC) 107 % of control | [2] 101 % of control | [4] 107 % of control | [6] 103 % of control

OCc1ccc(-c2ccccc2)cc1
inactive: dose: 25.0 mg/kg/injection, schedule: Q04DX003 (ip), vehicle: Klucel (hydroxypropylcellulose) (HPC) 108 % of control | dose: 50.0 mg/kg/injection, schedule: Q01DX005 (ip), vehicle: saline 94 % of control | dose: 50.0 mg/kg/injection, schedule: Q04DX003 (ip), vehicle: Klucel (hydroxypropylcellulose) (HPC) 103 % of control | dose: 100.0 mg/kg/injection, schedule: Q01DX005 (ip), vehicle: saline 112 % of control | [3] 103 % of control | dose: 200.0 mg/kg/injection, schedule: Q01DX005 (ip), vehicle: saline 100 % of control | dose: 400.0 mg/kg/injection, schedule: Q01DX005 (ip), vehicle: saline 102 % of control
